Assay results: US8952035B2, “Combination of anti-angiogenic substance and anti-tumor platinum complex” (Eisai R&D Management Co., Ltd., priority 2008, dated 2015)

Key:
[1] = tested on: Human non-small-cell lung cancer cell line A549; experiment: Combination use of E7080 and cisplatin in subcutaneous transplanted models (in vivo) of A549; design: species or system nude mouse; settings: alone
Procedure: Human non-small-cell lung cancer cell line A549 (purchased from Dainippon Sumitomo Pharma Co., Ltd) was cultured in RPMI1640 (containing 10% FBS) in a 5% carbon dioxide gas incubator at 37° C. to about 80% confluence, and then the cells were collected with trypsin-EDTA. A 1×10^8 cells/mL suspension was prepared with a phosphate buffer, which was further added with matrigel matrix (purchased from Becton, Dickinson and Co.) to give a 5×10^7 cells/mL suspension, and each 0.2 mL of the resulting cell suspension was subcutaneously transplanted to a nude mouse at the side of its body. Eleven days after the transplantation, 4-(3-chloro-4-(cyclopropylaminocarbonyl)aminophenoxy)-7-methoxy-6-quinolinecarboxamide (hereinafter, also referred to as “[…]”) was orally administered for 3, 10 or 30 mg/kg, once a day for four weeks, while 10 mg/kg of cisplatin was administered into the tail vein once a day. The major and minor axes of tumors were measured with Digimatic caliper (Mitsutoyo Corporation), and tumor volumes and relative tumor volumes were calculated according to the following formulae: Tumor Volume (TV)=Major axis of tumor(mm)×(Minor axis of tumor)^2(mm^2)/2 Relative Tumor Volume (RTV)=Tumor volume on measurement day/Tumor volume on the first administration day. […] Tables 1, 2 and 3 show anti-tumor effects obtained by the use of […] alone, the use of cisplatin alone and the combination use of […] and cisplatin in subcutaneous transplanted A549 models. The first day of administration was considered Day 1.

[2] = tested on: Human non-small-cell lung cancer cell line A549; experiment: Combination use of E7080 and carboplatin in subcutaneous transplanted models (in vivo) of A549; design: species or system nude mouse; settings: alone
Procedure: Human non-small-cell lung cancer cell line A549 (purchased from Dainippon Sumitomo Pharma Co., Ltd) was cultured in RPMI1640 (containing 10% FBS) in a 5% carbon dioxide gas incubator at 37° C. to about 80% confluence, and then the cells were collected with trypsin-EDTA. A 1×10^8 cells/mL suspension was prepared with a phosphate buffer, which was further added with matrigel matrix (purchased from Becton, Dickinson and Co.) to give a 5×10^7 cells/mL suspension, and each 0.2 mL of the resulting cell suspension was subcutaneously transplanted to a nude mouse at the side of its body. Eleven days after the transplantation, 4-(3-chloro-4-(cyclopropylaminocarbonyl)aminophenoxy)-7-methoxy-6-quinolinecarboxamide (E7080) was orally administered for 3 or 10 mg/kg, once a day for four weeks, while 100 mg/kg of carboplatin was administered into the tail vein on the first day. The major and minor axes of tumors were measured with Digimatic caliper (Mitsutoyo Corporation), and tumor volumes and relative tumor volumes were calculated according to the following formulae: Tumor Volume (TV)=Major axis of tumor(mm)×(Minor axis of tumor)^2(mm^2)/2 Relative Tumor Volume (RTV)=Tumor volume on measurement day/Tumor volume on the first administration day.
Tables 4 and 5 show anti-tumor effects obtained by the use of E7080 alone, the use of carboplatin alone and the combination use of E7080 and carboplatin in subcutaneous transplanted A549 models. The first day of administration was considered Day 1.

[3] = E7080 3 mg/kg orally once a day for four weeks
[4] = E7080 10 mg/kg orally once a day for four weeks

Structure (SMILES): N.N.[Cl][Pt][Cl] [Cisplatin, cisplatin, reference compound]
- Relative tumor volume on Day 29 Average ± standard deviation ([1]; Cisplatin 10 mg/kg into the tail vein): 7.99 ± 0.88

Structure (SMILES): COc1cc2nccc(Oc3ccc(NC(=O)NC4CC4)c(Cl)c3)c2cc1C(N)=O [E7080, 4-(3-chloro-4-(cyclopropylaminocarbonyl)aminophenoxy)-7-methoxy-6-quinolinecarboxamide]
- Relative tumor volume on Day 29 Average ± standard deviation [1, 3]: 2.24 ± 0.34
- Relative tumor volume on Day 29 Average ± standard deviation [1, 4]: 1.81 ± 0.29
- Relative tumor volume on Day 29 Average ± standard deviation ([1]; E7080 30 mg/kg orally once a day for four weeks): 1.20 ± 0.21
- Relative tumor volume on Day 29 Average ± standard deviation [2, 3]: 2.24 ± 0.34
- Relative tumor volume on Day 29 Average ± standard deviation [2, 4]: 1.81 ± 0.29

Structure (SMILES): N.N.O=C([O-])C1(C(=O)[O-])CCC1.[Pt+2] [Carboplatin, carboplatin, reference compound]
- Relative tumor volume on Day 29 Average ± standard deviation ([2]; Carboplatin 100 mg/kg into the tail vein on the first day): 7.87 ± 1.05
